These results are taken from PMC6269909, “Investigating the Antioxidant and Acetylcholinesterase Inhibition Activities of Gossypium herbaceam” (Molecules, 2013).

Where two headings read alike, the source gives them in different places.

Test [1] concerns the target T1, Acetylcholinesterase (AChE) type VI-S from electric eel (Electrophorus electricus, UniProt O42275).
T1 construct: purchased Sigma (St. Louis, MO, USA)
As to the kind of experiment: biochemical. An excerpt: Acetylcholinesterase (AChE) type VI-S from electric eel, 5-5′-dithiobis-[2-nitrobenzoicacid] (DTNB), 1-1-diphenyl-2-picrylhydrazyl (DPPH), 2,2'-azinobis-(3-ethylbenzothiazoline-6-sulfonic acid) (ABTS), acetylthiocholine iodide (AChI), dimethyl sulfoxide (DMSO), ferrous sulfate (FeSO4·7H2O), thiobarbituric acid (TBA), trichloroacetic acid (TCA), potassium ferricyanide were obtained from Sigma (St. Louis, MO, USA). L-3-ketothreohexuronic acid lactone (vitamin C) and huperzine A were purchased from the National Institutes for Food and Drug Control, Beijing, China. All the other reagents were of analytical grade.
Inhibition of acetyl cholinesterase activity of samples was measured by the micro-plate assay adapted. AChE inhibitory activity was measured by slightly modifying the spectrophotometric method from the literature which was initially developed by Ellman. Briefly, in this method, 100 μL of […] sodium phosphate buffer (pH = 8.0), 20 μL of DTNB, 20 μL of test solution and 2 μL of AChE solution were added using a multichannel automatic pipette into a 96-well micro plate and incubated for 15 min at 25 °C.

For another test, the system named is PC12 cells. As to the kind of experiment: tBHP exposure in PC12 cells, cell viability (MTT). To be noted: for Protection against tBHP-induced cell death in PC12 cells (cell viability, MTT): pre-treated 100 μM for 24 h, then tBHP 200 μM for 3 h, p < 0.05. The test is classed as cell-based, Rat. As to the method:
tBHP caused a reduction in cell viability with an IC50 value for PC12 cells death at 200 μM. PC12 cells were an established model of nerve growth factor (NGF) - induced neurite formation. […] In the control sample, the value of cell viability was set to be 100%.
Rat pheochromocytoma cells (PC12) cells were kindly donated by Professor Dong T. X. (The Hong Kong University of Science and Technology, Hong Kong, China). PC12 cells were maintained in 75 cm culture flasks containing 20 mL of RPMI-1640 media supplemented with 1% FBS, 1% L-glutamine, 1% non-essential amino acids and 1% penicillin/streptomycin. Cells were maintained in an incubator at 37 °C with 5% CO2. Experiments and cell maintenances were performed in a laminar flow hood under sterile conditions. Cells were passaged every 4–5 days and detached from flasks using 1× trypsin EDTA. Cell counts were performed using trypan blue to stain non viable cells, which were excluded from the count. Ninety-six well plates were used for cell viability experiments. The cells were then allowed to equilibrate for 24 h before the experiment.
H2O2 is a well established pro-oxidant in PC12 cells over the concentration range used. tBHP shares some of the same properties of H2O2 but generates a more shallow neurotoxicity response over a wider concentration range than H2O2 in PC12 cells and elicits greater lipid peroxidation. […] For anti-oxidation effect, the cultures were treated with tBHP (200 μM) for 3 h. Cultures were subjected to cell viability test using the colorimetric MTT assay. Purple crystal inside the cells was dissolved by DMSO and measured by absorbance at 570 nm.

A short description of test [2]: DPPH radical scavenging assay. The test is classed as biochemical. To be noted: Table 2, mean of three replicates, read-out: IC50 for inhibition of DPPH radical formation. From the text:
(§1) The DPPH radical activity test was used to measure the hydrogen atom or electron donor capacity of the samples to the stable radical DPPH formed in liquid solution. Thus, it measures the capacity of the samples to scavenge free radicals in solution [17]. Proton radical scavenging is an important attribute of antioxidants. […] ABTS, a protonated radical, has characteristic absorbance at 734 nm which decreases with the scavenging of the proton radicals. […]
DPPH is a stable free radical that reacts with compounds that can donate a hydrogen atom. This method is based on the scavenging of DPPH through the addition of a radical species or an antioxidant that decolorizes the DPPH solution. The antioxidant activity is then measured by the extent of decrease in absorption at 515 nm. In brief, a 0.2 mM solution of DPPH in methanol was prepared, and 100 μL of this solution was added to 100 μL of the sample solution in methanol at varying concentrations. The solutions in the 96 well micro plates were shaken well and incubated in the dark for 30 minutes at room temperature. The absorbance was measured at 515 nm. A large decrease in the absorbance of the reaction mixture indicates substantial free radical scavenging activity of the compound. DPPH radical scavenging activity (%) = [(Abscontrol − Abscompound)]/(Abscontrol)] × 100 where Abscontrol is the absorbance of DPPH radical + methanol; Abscompound is the absorbance of DPPH radical + compound/standard.

Test [3] can be described thus: ABTS radical scavenging assay. The test is classed as biochemical. To be noted: Table 2, mean of three replicates, read-out: IC50 for inhibition of ABTS radical formation.
Excerpt: as §1
The ABTS radical scavenging method was developed by Rice-Evans and Miller in 1994 and was then modified by Rice-Evants et al. in 1999. The modification is based on the activation of metmyo-globin with hydrogen peroxide in the presence of ABTS^•+ to produce a radical cation. This improved method generates a blue/green ABTS^•+ chromophore via the reaction of ABTS and potassium persulfate and is now widely used. The antioxidant activity is then measured by the decrease in absorption at 734 nm. In brief, ABTS radical cation (ABTS^•+) was produced by reacting ABTS stocking solution with […] potassium persulfate and kept in the dark at room temperature for 12–16 h before use. The samples containing the ABTS^•+ solution were diluted with methanol to obtain an absorbance of 0.700 (±0.02) at 734 nm and equilibrated at 30 °C. The ABTS^•+ solution was freshly prepared for each assay. Different concentrations of compounds (16 μL) were allowed to react with 184 μL of the ABTS^•+ solution and the absorbance was taken at 734 nm after 7 min using spectrophotometer. The ABTS^•+ scavenging capacity of the compound percentage inhibition was calculated using formula: ABTS radical scavenging activity (%) = [(Abscontrol − Abscompound)]/(Abscontrol)] × 100, where Abscontrol is the absorbance of ABTS radical + methanol; Abscompound is the absorbance of ABTS radical + compound/standard.

A short description of test [4]: Lipid peroxidation assay (TBARS), egg yolk homogenates. The test is classed as biochemical. To be noted: Table 2; egg yolk homogenate, FeSO4; mean of three replicates; read-out: IC50 for inhibition of peroxidation of lipids, estimated as thiobarbituric acid reactive substances. As to the method: Lipid peroxidation involves the formation and propagation of lipid radicals with numerous deleterious effects, including destruction of membrane lipids, metabolic disorders and inflammation, and production of malondialdehyde (MDA) is a hallmark of this process. Inhibition of lipid peroxidation was assessed by amount of MDA produced. Lipids in egg yolk undergo rapid nonenzymatic peroxidation in the presence of ferrous sulphate. […] Phenolics present in plant sources have received considerable attention over the past decade because of their potential to prevent lipid peroxidation and diseases associated with it.
A modified thiobarbituric acid-reactive species (TBARS) assay was used to measure the lipid peroxide formed, using egg yolk homogenates as lipid-rich media. Adapted TBARS method was employed to measure the antioxidant capacity. Briefly, egg homogenate (100 μL of 1:25, v/v in phosphate-buffered saline (PBS) PH 7.4) and 10 μL of different concentrations of sample were added to a test tube as well as added 25 mmol/L freshly prepared FeSO4 made up to 300 μL with PBS. The homogenate was incubated at 37 °C for 15 min and then the reaction was stopped by adding 50 μL 15% w/v trichloroacetic acid (TCA) and centrifugation (3,500 rpm) for 15 min. An aliquot of 200 μL from supernatant was mixed with 100 μL thiobarbituric acid (TBA) and heated at 95 °C for 30 min.

The mark [5] stands for this setting: Table 2, mean of three replicates, read-out: IC50 for inhibition of AChE.

T1 sequence (O42275 24-633): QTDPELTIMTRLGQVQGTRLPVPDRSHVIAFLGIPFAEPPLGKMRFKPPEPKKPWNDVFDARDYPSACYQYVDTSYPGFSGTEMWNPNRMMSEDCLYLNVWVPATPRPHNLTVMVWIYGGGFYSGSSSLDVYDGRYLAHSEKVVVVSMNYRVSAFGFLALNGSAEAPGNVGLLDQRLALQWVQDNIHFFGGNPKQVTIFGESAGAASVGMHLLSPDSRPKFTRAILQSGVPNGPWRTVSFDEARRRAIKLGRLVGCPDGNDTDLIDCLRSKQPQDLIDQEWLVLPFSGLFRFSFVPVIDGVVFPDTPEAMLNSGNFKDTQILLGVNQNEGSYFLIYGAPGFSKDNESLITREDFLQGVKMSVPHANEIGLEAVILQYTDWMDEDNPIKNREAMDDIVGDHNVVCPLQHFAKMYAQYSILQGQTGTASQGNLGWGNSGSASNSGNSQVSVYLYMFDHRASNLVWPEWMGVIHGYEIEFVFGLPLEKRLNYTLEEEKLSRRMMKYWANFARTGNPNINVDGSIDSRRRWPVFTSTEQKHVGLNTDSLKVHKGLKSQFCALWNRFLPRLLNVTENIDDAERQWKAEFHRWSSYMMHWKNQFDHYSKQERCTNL

The IC50 is the concentration at which inhibition is half-maximal. Turning to `O=c1c(O)c(-c2ccc(O)c(O)c2)oc2cc(OC3OC(CO)C(O)C(O)C3O)cc(O)c12` (stereo not drawn) [Quercimeritin], the 50% inhibitory concentration (IC50) in test [1] is 52.3 µM; in test [2], 3.69 µM; in test [3] it was 24.9 µM; in test [4] it was 6.85 µM. Besides, the “Protection against tBHP-induced cell death in PC12 cells (cell viability, MTT)” value (“Protection” below) in the test on PC12 cells is “could exert the anti-oxidation effect in protecting the tBHP-induced cell death”.

Turning to `CC(C)(C)OO` [tBHP, tertiary butyl hydroperoxide, reference compound], the IC50 with PC12 cells (reduction in cell viability by tBHP, read-out: IC50 value for PC12 cells death) was 200 µM.

`O=c1c(O[C@@H]2O[C@H](CO)[C@@H](O)[C@H](O)[C@H]2O)c(-c2ccc(O)c(O)c2)oc2cc(O[C@@H]3O[C@H](CO)[C@@H](O)[C@H](O)[C@H]3O)cc(O)c12` [Quercetin-3,7-di-O-β-D-glucopyranosid]: the 50% inhibitory concentration (IC50) in test [1] (setting [5]) is 67.1 µM; in test [2], 5.48 µM; in test [3] it was 50.8 µM; in test [4], 33.4 µM.

On to `COc1cc(-c2oc3cc(O[C@@H]4O[C@H](CO)[C@@H](O)[C@H](O)[C@H]4O)cc(O)c3c(=O)c2O)ccc1O` [Isorhamnetin-7-O-β-D-glucopyranoside], for which the half-inhibitory concentration (IC50) was 55.7 µM in test [1] (setting [5]), 1.73 µM in test [2], 21.8 µM in test [3] and 7.2 µM in test [4].

Consider `O=c1c(O)c(-c2ccc(O)c(O)c2)oc2cc(O)cc(O)c12` [Quercetin], for which the half-inhibitory concentration (IC50) was 19.6 µM in test [2] (listed as quercetin); 0.84 µM in test [2]; 0.84 µM in test [3] (listed as quercetin); 19.6 µM in test [3]; 13.1 µM in test [4].

With `O=c1c(O)c(-c2ccc(O)cc2)oc2cc(O)cc(O)c12` [Kaempferol], in the test with PC12 cells, the “Protection” value was “could exert the anti-oxidation effect in protecting the tBHP-induced cell death”. Also, the figures for the 50% inhibitory concentration (IC50) in test [2] and in test [3] were 5.52 µM and 41.4 µM, respectively.

As for `O=c1c(O[C@@H]2O[C@H](CO)[C@@H](O)[C@H](O)[C@H]2O)c(-c2ccc(O)c(O)c2)oc2cc(O)cc(O)c12` [Isoquercetin], the IC50 in test [1] is 57 µM; in test [2], 3.65 µM; in test [3], 26.9 µM; in test [4] it was 8.81 µM.

On to `O=c1c(O)c(-c2ccc(O)c(O[C@@H]3O[C@H](CO)[C@@H](O)[C@H](O)[C@H]3O)c2)oc2cc(O)cc(O)c12` [Quercetin-3′-O-β-D-glucoside], for which the IC50 in test [1] (setting [5]) is 88.6 µM; in test [2] it was 3.75 µM; in test [3], 34.7 µM; in test [4], 8.9 µM. Also, in the test with PC12 cells, the “Protection” value was “could exert the anti-oxidation effect in protecting the tBHP-induced cell death”.

For `O=C1O[C@H]([C@@H](O)CO)C(O)=C1O` [Vit C, L-3-ketothreohexuronic acid lactone, reference compound], in the test on PC12 cells, the “Protection” value was “protect the cells against oxidation significantly”.

With `O=c1c(O[C@@H]2O[C@H](CO)[C@H](O)[C@H](O)[C@H]2O)c(-c2ccc(O)c(O)c2)oc2cc(O)cc(O)c12` [Hyperoside], the IC50 was 94.6 µM in test [1], 11.2 µM in test [2], 113 µM in test [3] and 7.47 µM in test [4].
